Results from EP0460883B1, “Process for beta-hydroxy-alpha-amino acids” (THE UNIVERSITY OF NOTRE DAME DU LAC, priority 1990, dated 1991).

What was measured:
[1] = biological target: T1, serine hydroxymethyltransferase (SHMT) (Oryctolagus cuniculus, UniProt P07511); test: Conversion of aldehyde substrates and glycine to β-hydroxy-α-amino acids by SHMT (HPLC assay); assay type: biochemical, rabbit; set-up: key: + = conversion; - = no detectable conversion
T1 construct: Three such sources are rabbit liver (LaVerne Schirch and Merle Mason, J. Biol. Chem., Vol. 237, No. 8, August 1962); from tissue; host or cells: rabbit liver
T1 sequence (P07511 2-484 limits assumed): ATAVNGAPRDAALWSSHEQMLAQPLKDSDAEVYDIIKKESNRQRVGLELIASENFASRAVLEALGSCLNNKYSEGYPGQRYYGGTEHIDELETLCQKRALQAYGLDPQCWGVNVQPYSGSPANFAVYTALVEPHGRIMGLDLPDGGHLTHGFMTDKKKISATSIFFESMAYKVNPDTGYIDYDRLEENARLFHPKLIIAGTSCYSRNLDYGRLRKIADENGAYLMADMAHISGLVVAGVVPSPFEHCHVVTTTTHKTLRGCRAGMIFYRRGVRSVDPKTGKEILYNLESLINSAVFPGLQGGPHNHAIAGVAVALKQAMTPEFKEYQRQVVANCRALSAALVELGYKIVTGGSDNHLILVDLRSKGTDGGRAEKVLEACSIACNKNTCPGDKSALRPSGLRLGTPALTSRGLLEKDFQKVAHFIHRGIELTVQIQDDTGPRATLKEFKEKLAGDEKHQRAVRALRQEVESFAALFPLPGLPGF
Experimental: (§1) The following Table 1 lists representative aldehyde substrates which were converted in the process to β-hydroxy-α-amino acids with SHMT from two sources. The conversion of the substrates in Table 1 was carried out by incubating the substrate and glycine with SHMT under the conditions of the process. A number of the process conditions used were common to all of the substrates and are detailed in the following paragraphs. Wherever exceptions occurred they are noted in each instance.
(§2) The incubations were carried out in 10 mM phosphate buffer, pH 7.3 containing pyridoxal 5′-phosphate at a concentration of about 80 µM. All solutions were prepared from distilled, deionized water for best results. The conversions were carried out at about 37°C in sealed, 500 µL polypropylene micro-centrifuge vials in a constant-temperature water bath. The vials were protected from light except when removed from the water bath for removal of aliquots for analysis. With all conversions an enzyme blank incubation was carried out in parallel with the SHMT incubation. The total volume of the incubation mixture was typically about 200 µL. The conditions in the blank were identical to those of the incubation mixture except for the absence of the enzyme.
(§3) The process can be monitored for production of the β-hydroxy-α-amino acid by removing aliquots from the incubation mixture from time to time and assaying the samples by HPLC separation and fluorescence detection of o-phthalaldehyde derived isoindoles of all primary amine compounds present in the mixture. The assay procedure is described by Jones, B.N.; Gilligan, J. P., J. Chrom. 1983, 266, 471; Jones, B. N. et al., J. Liq. Chrom. 1981, 4,565, and Simons, Jr., S. S. et al., J. Am Chem. Soc. 1976, 98, 7098. HPLC analysis of both the incubation mixture and the enzyme blank allowed determination of which peak(s) on the chromatograms could be assigned to enzyme products.

[2] = tested on: serine hydroxymethyltransferase (SHMT); test: as above; assay type: biochemical, corn; set-up: key: + = conversion; - = no detectable conversion
Experimental: as §1, §2, §3
All of the following procedures were carried out at 4°C. Washed 5-7 day old corn seedlings were homogenized in a Waring blender in 100 mM potassium monohydrogen phosphate containing 1 mM disodium ethylenediaminetetraacetate (EDTA), 1 mM dithiothreitol, and 125 µM of pyridoxal 5'-phosphate. The mix contained approximately 960 g of seedlings per liter. The homogenate was filtered through cheese cloth and the filtrate was subjected to ammonium sulfate precipitation. The protein which precipitated with 35-50% saturation in ammonium sulfate upon centrifuging at 13,800 x g for 40 min. was dissolved in 10 mM phosphate buffer, pH 7.8, containing […] pyridoxal 5'-phosphate and 1 mM EDTA. The solution was dialyzed and concentrated to 5-15 mg of protein/ml in the same buffer without EDTA present. Assay for aldolase activity of the protein consisted of a coupled system between the aldolase-catalyzed retroaldol of L-allo-threonine with the NADH (reduced form of nicotinamide adenine dinucleotide) dependent reduction of the resulting acetaldehyde by yeast alcohol dehydrogenase (ADH). Specific activity averaged 78 milliunits/mg of protein. One unit of enzyme activity is defined as that amount of enzyme required to cause a change of one optical density unit (at 340 nm) per minute at room temperature in the presence of ADH, 120 mM L-allo-threonine, 125 µM PLP, and 120 µM NADH in 100 mM phosphate buffer, pH 7.5.

[3] = incubation with glycine, 10 mM phosphate buffer pH 7.3, pyridoxal 5′-phosphate about 80 µM, about 37°C

| Aldehyde (RCHO) Substrates for SHMT, Enzyme Rabbit Liver [1, 3] | Compound | Aldehyde (RCHO) Substrates for SHMT, Enzyme Corn Seedlings [2, 3] | Aldehyde (RCHO) Substrates for SHMT, Enzyme Corn Seedlings ([2]; as the other substrates, but tetrahydrofolate was present) | Aldehyde (RCHO) Substrates for SHMT, Enzyme Rabbit Liver ([1]; as the other substrates, but VO3- (metavanadate) was present) |
| --- | --- | --- | --- | --- |
| + | CC(C)OC(=O)CCC=O [-CH2CH2CO2(CH3)2, succinic semialdehyde isopropyl ester] |  |  |  |
| + | COC(=O)CCCC=O [-CH2CH2CH2CO2CH3, Glutaric semialdehyde methyl ester] | + |  |  |
|  | CC(=O)C=O [-C(O)CH3, pyruvaldehyde] |  | + | + |
| + | COC(=O)CCC=O [-CH2CH2CO2CH3, succinic semialdehyde methyl ester] | + |  |  |
| + | O=CCCCOC=O [-CH2CH2CH2OCHO, O-formyl 4-hydroxybutanal] |  |  |  |
| + | O=CCCc1ccco1 | - |  |  |
| - | O=CC(=O)O [-CO2H] | - |  |  |
|  | CCC=O [-CH2CH3, propionaldehyde] | + |  |  |
|  | O=CCOCc1ccccc1 [-CH2OCH2C6H5] | + |  |  |

| Compound | Aldehyde (RCHO) Substrates for SHMT, Enzyme Rabbit Liver [1, 3] | Aldehyde (RCHO) Substrates for SHMT, Enzyme Corn Seedlings [2, 3] | Aldehyde (RCHO) Substrates for SHMT, Enzyme Corn Seedlings ([2]; as the other substrates, but tetrahydrofolate was present) | Aldehyde (RCHO) Substrates for SHMT, Enzyme Rabbit Liver ([1]; as the other substrates, but VO3- (metavanadate) was present) |
| --- | --- | --- | --- | --- |
| CCCC=O [-CH2CH2CH3, n-butanal] | + |  |  |  |
| CC=O [-CH3, acetaldehyde] | + | + |  |  |
| O=Cc1ccccc1 [Example C6H5, benzaldehyde] | + | - |  |  |
| O=Cc1ccco1 [Example 2-furyl, 2-furfural] | + | + |  |  |
